Tests used:
Test in all cases: relative viability (nuclei count vs DMSO), 5 days (fraction); higher = more cells survive
Avagacestat + Trametinib = compound: NC(=O)[C@@H](CCC(F)(F)F)N(Cc1ccc(-c2ncon2)cc1F)S(=O)(=O)c1ccc(Cl)cc1 [Avagacestat] + CC(=O)Nc1cccc(-n2c(=O)n(C3CC3)c(=O)c3c(Nc4ccc(I)cc4F)n(C)c(=O)c(C)c32)c1 [Trametinib] (partner 0.02 µM)
Method in brief: (§1)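 Lung cancer cell lines were seeded in 1536-well plates and dosed by pin tool the next day, with either a single drug or a fixed anchor-drug dose combined with five library-drug doses (not always all listed) spaced in √10 steps. Five days later, one step fixed the cells and stained their nuclei (final 0.05% Triton X-100, 1% formaldehyde, 1 ug/ml Hoechst), and nuclei were counted on 4× images. Relative viability is the nuclei count in treated wells divided by the count in vehicle wells, and each value is the median of duplicate plates.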

Avagacestat + Olaparib = compound: NC(=O)[C@@H](CCC(F)(F)F)N(Cc1ccc(-c2ncon2)cc1F)S(=O)(=O)c1ccc(Cl)cc1 [Avagacestat] + O=C(c1cc(Cc2n[nH]c(=O)c3ccccc23)ccc1F)N1CCN(C(=O)C2CC2)CC1 [Olaparib] (partner 8 µM)
Method in brief: as §1

Avagacestat + Phenformin = compound: NC(=O)[C@@H](CCC(F)(F)F)N(Cc1ccc(-c2ncon2)cc1F)S(=O)(=O)c1ccc(Cl)cc1 [Avagacestat] + N=C(N)NC(=N)NCCc1ccccc1 [Phenformin] (partner 250 µM)
Method in brief: as §1

Avagacestat = compound: NC(=O)[C@@H](CCC(F)(F)F)N(Cc1ccc(-c2ncon2)cc1F)S(=O)(=O)c1ccc(Cl)cc1 [Avagacestat]
Method in brief: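 Only plates meeting two conditions passed: control CV below 25% and at least one doubling. Lung cancer cell lines, kept overnight at 37 °C in 1536-well plates, were pinned with five library-drug doses (not always all listed) √10 apart on vehicle-anchored plates and grown 5 days without medium change. A one-step fix, permeabilisation and Hoechst stain preceded 4× imaging and MetaXpress nuclear counting. Viability equals treated-well nuclei divided by vehicle-well nuclei, as the median over plates.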

Cell Line	relative viability (Avagacestat + Trametinib; first compound 0.08 µM)	relative viability (Avagacestat + Trametinib; first compound 0.253 µM)	relative viability (Avagacestat + Trametinib; first compound 0.8 µM)	relative viability (Avagacestat + Trametinib; first compound 2.53 µM)	relative viability (Avagacestat + Trametinib; first compound 8 µM)	relative viability (Avagacestat + Olaparib; first compound 0.08 µM)	relative viability (Avagacestat + Olaparib; first compound 0.253 µM)	relative viability (Avagacestat + Olaparib; first compound 0.8 µM)	relative viability (Avagacestat + Olaparib; first compound 2.53 µM)	relative viability (Avagacestat + Olaparib; first compound 8 µM)	relative viability (Avagacestat + Phenformin; first compound 0.08 µM)	relative viability (Avagacestat + Phenformin; first compound 0.253 µM)	relative viability (Avagacestat + Phenformin; first compound 0.8 µM)	relative viability (Avagacestat + Phenformin; first compound 2.53 µM)	relative viability (Avagacestat + Phenformin; first compound 8 µM)	relative viability (Avagacestat; 0.08 µM)	relative viability (Avagacestat; 0.253 µM)	relative viability (Avagacestat; 0.8 µM)	relative viability (Avagacestat; 2.53 µM)	relative viability (Avagacestat; 8 µM)
NCI-H358	0.14	0.114	0.129	0.127	0.119	0.704	0.559	0.655	0.596	0.562	0.357	0.352	0.391	0.323	0.325	1.02	1	1.03	0.835	0.835
LCLC-103H	0.721	0.726	0.772	0.567	0.61	0.809	0.617	0.845	0.745	0.766	0.344	0.298	0.348	0.343	0.294	0.994	0.928	0.921	0.929	0.941
HCC-15	0.395	0.44	0.391	0.394	0.374	0.755	0.887	0.862	0.77	0.674	0.617	0.592	0.512	0.491	0.378	1.17	1.19	1.13	1	0.946
NCI-H3122	0.298	0.233	0.197	0.23	0.219	0.717	0.735	0.885	0.659	0.645	0.405	0.391	0.428		0.405	1.07	1.08	1.05	0.995	0.927
CAL-12T	0.407	0.417	0.418	0.413	0.443	0.73	0.715	0.773	0.782	0.83	0.721	0.578	0.662	0.614	0.403	1.09	1.12	1.11	1.11	1.04
COR-L23	0.765	0.741	0.818	0.632	0.414	0.326	0.3	0.339	0.308	0.284	0.463	0.444	0.423	0.435	0.359	1.16	1.24	0.989	0.921	0.901
NCI-H1792	0.534	0.641	0.491	0.373	0.439	0.673	0.605	0.563	0.408	0.726	0.474	0.304	0.391	0.19	0.304	1.15	0.866	1.36	0.859	0.761
NCI-H2087	0.211	0.223	0.196	0.183	0.198	0.806	0.613	0.884	0.62	0.543	0.535	0.561	0.548	0.467	0.441	1.29	1.06	1.12	1.08	1.06
LC-2-ad	0.99	0.965	0.962	0.911	0.856	0.853	0.794	0.826	0.783	0.679	0.577	0.651	0.713	0.602	0.554	1.02	0.985	1.11	1.03	0.96
H3255	0.673	0.644	0.777	0.569	0.589	0.626	0.663	0.609	0.621	0.572	0.357	0.352	0.326	0.353	0.431	1.04	1.06	1.08	1.01	0.988
NCI-H727	0.443	0.452	0.387	0.434	0.499	0.735	0.875	0.698	0.745	0.788	0.684	0.489	0.778	0.421	0.613	1.06	0.987	0.948	1.02	0.837
LCLC-97TM1	0.241	0.251	0.266	0.174	0.22	0.533	0.463	0.555	0.309	0.307	0.526	0.472	0.487	0.481	0.468	1.08	1.09	1.2	1	0.829
LU99A	0.515	0.485	0.555	0.485	0.534	0.254	0.259	0.269	0.265	0.243	0.867	0.944	0.923	0.821	0.902	0.977	0.997	1.12	0.907	0.986
NCI-H1651	0.884	0.93	0.838	0.842	0.813	0.219	0.188	0.179	0.19	0.19	0.321	0.343	0.358	0.293	0.354	1.08	1.09	1.13	0.98	0.922
NCI-H322M	0.48	0.457	0.343	0.465	0.443	0.827	0.774	0.783	0.685	0.668	0.733	0.748	0.712	0.69	0.65	0.916	0.833	0.97	0.74	0.846
SK-LU-1	0.524	0.457	0.516	0.467	0.382	0.472	0.62	0.515		0.374	0.539	0.499	0.523	0.353	0.474	1.21	1.03	1.02	0.83	0.908
NCI-H1666	1.29	1.04	1.02	0.991	0.748	0.843	0.863	0.808	0.955	0.758	0.686	0.639	0.619	0.603	0.603	1.28	1.18	1.26	1.17	1.17
NCI-H2126	0.612	0.553	0.545	0.524	0.512	0.921	0.941	0.931	1.03	0.873	0.509	0.516	0.569	0.561	0.511	0.994	1.04	1.06	0.921	0.936
